Experimental data published in US20240044921A1, “METHOD FOR EVALUATING BLOOD COAGULATION PERFORMANCE, AND METHOD FOR INSPECTING RISK OF THROMBOSIS” (FUJIMORI KOGYO CO., LTD., priority 2020, published 2024).

Tested on: whole blood
Assay: ROTEM blood coagulation analysis, blood collection tube with rubber stopper, Example 3
Assay type: cell-based, human
Details: heparan sulfate 1 μg/mL with calcium chloride, CTI 20 μg/mL, PKSI-527 40 μM (reagent (2))
Method: The present invention will be more specifically described below by referring to Examples, but the present invention is not limited to the embodiments below. The blood samples used in the Examples were collected from healthy humans unless otherwise described.
ROTEM (IL) was used to analyze blood coagulation.
Blood was collected using a blood collection tube (2 mL) containing 3.2% sodium citrate manufactured by Becton, Dickinson and Company. A rubber stopper is used for this blood collection tube. […]

heparan sulfate
coagulation-promoting effect of the rubber stopper: can be inhibited
